Source: patent US5457091A, “N1-substituted 1H-1,2,3-triazolo[4,5,-D]pyrimidines, a process for their preparation and their use as antiviral agents” (priority 1992, dated 1995)
Converted amounts (≈) assume the structure as drawn. Like-named read-outs stand apart in the source and are kept apart here.

Key:
HSV-1 VR539 = test: CPE inhibition, HSV-1 VR539 in Vero cells; format: cell-based, type 1 herpes simplex virus; settings: Human alphaherpesvirus 1, MIC = concentration protecting 50% of cells from CPE
Protocol: (§1) The antiviral activity of the test substances on various human pathogenic DNA and RNA viruses was investigated in cell culture test systems.
(§2) The test substances are diluted in ethanol to a final concentration of 1 mg/ml before the test, and Dulbecco's minimal essential medium (MEM) is used for further dilution steps. For the test, serial 3-fold dilutions of the test substances are made up in 96-well microtiter plates. Monkey kidney cells (Veto) in medium199 (5% FCS) or human embryonic diploid pulmonary fibroblast cells MRC-5 (Whittaker) are added in a concentration of 2×10^4 cells/well and incubated at 37° C. (5% CO2) for 3 h.
(§3) The test mixtures contain the test substance in concentrations from 400 μg/ml to 0.18 μg/ml in MEM supplemented with 4% FCS (HeLa) or 2% FCS (Veto), 100 U/ml penicillin G and 100 μg/ml streptomycin.
(§4) The cells are then infected with type 1 herpes simplex virus (corneas), type I herpes simplex virus VR733, type 1 herpes simplex virus VR539 (hominis), type 2 herpes simplex virus VR734 (MS), human cytomegalovirus VR977 or varicella zoster virus VR586 in concentrations at which the cell lawn is completely destroyed within 3 days (CMV: 7 days, VZV: 10 days) (for example HSV-1 corneae: 0.035 PFU/Vero cell, HSV-2: 0.066 PFU/Vero cell).
(§5) The cultures are incubated at 37° C. in the presence of 5% CO2. All the investigations are carried out as duplicate determinations; controls are determined only once per plate.
(§6) The untreated infection controls show a complete cytopathogenic effect (CPE) after incubation for a further 48 h (HCMV after 6 days, VZV after 9 days). After microscopic inspection of the cell cultures (HSV, HCMV, VZV), they are then stained (only HSV) with neutral red in accordance with the vital staining method of Finter (1966). The antiviral activity of a test substance is defined as the minimum inhibitory concentration (MIC) which is required to protect 50% of the cells from the cytopathogenic effect of the virus.

[1] = Cytotoxicity by microscopic inspection, MRC-5 cells; format: cell-based; settings: human, read-out: MTD (maximum tolerated dose)
Protocol: as §2, §3, §5
(§7) After incubation for 24 h, the cytotoxicity of the test substances is determined by microscopic inspection of the cell cultures. The maximum tolerated dose (MTD) is designated as the highest concentration of product which, under the said test conditions, is insufficient to cause microscopically detectable cell damage.

HSV-2 VR734 = test: CPE inhibition, HSV-2 VR734 in Vero cells; format: cell-based, type 2 herpes simplex virus; settings: Human alphaherpesvirus 2, MIC = concentration protecting 50% of cells from CPE
Protocol: as §1, §2, §3, §4, §5, §6

[2] = Cytotoxicity by microscopic inspection, Vero cells; format: cell-based; settings: monkey
Protocol: as §2, §3, §5, §7

HSV-1 corneae = test: CPE inhibition, HSV-1 corneae in Vero cells; format: cell-based, type 1 herpes simplex virus; settings: Human alphaherpesvirus 1, MIC = concentration protecting 50% of cells from CPE
Protocol: as §1, §2, §3, §4, §5, §6

HSV-1 VR733 = test: CPE inhibition, HSV-1 VR733 in Vero cells; format: cell-based, type 1 herpes simplex virus; settings: Human alphaherpesvirus 1, MIC = concentration protecting 50% of cells from CPE
Protocol: as §1, §2, §3, §4, §5, §6

HSV-1 labialis = test: CPE inhibition, HSV-1 labialis in Vero cells; format: cell-based, type 1 herpes simplex virus; settings: Human alphaherpesvirus 1, MIC = concentration protecting 50% of cells from CPE
Protocol: as §1, §2, §3, §4, §5, §6

HCMV VR977 = test: CPE inhibition, HCMV VR977 in MRC-5 cells; format: cell-based, human cytomegalovirus; settings: Human betaherpesvirus 5, MRC5, MIC = concentration protecting 50% of cells from CPE
Protocol: as §1, §2, §3, §4, §5, §6

herpesviruses = test: Antiviral activity against herpesviruses (general statement); settings: in words
VZV VR586 = test: CPE inhibition, VZV VR586 in MRC-5 cells; format: cell-based, varicella zoster virus; settings: Human alphaherpesvirus 3, MRC5, read-out: MIC VZV VR586
Protocol: as §1, §2, §3, §5
as §6, with “After” for “The untreated infection controls show a complete cytopathogenic effect (CPE) after incubation for a further 48 h (HCMV after 6 days, VZV after 9 days). After”

HSV-1 = test: Therapeutic efficacy in NMRI mice infected intraperitoneally with HSV-1; format: in vivo; settings: for Surviving/group size: observed 2 weeks; for ED50: Human alphaherpesvirus 1, from Reed & Muench, read-out: IC50 (the source's name)
[3] = Vero cells, 24 h, read-out: MTD (maximum tolerated dose)

Row | SMILES | EC50 (HSV-1 VR539) | MNTC at 24 h [1] | EC50 (HSV-2 VR734) | EC50 (HSV-1 corneae) | EC50 (HSV-1 VR733) | EC50 (HSV-1 labialis) | EC50 (HCMV VR977) | activity against herpesviruses (herpesviruses) | MNTC at 24 h [2, 3] | EC50 (VZV VR586) | Average survival time (HSV-1; 9 × 3 μmol/kg ip) | Surviving/group size (HSV-1; 9 × 3 μmol/kg ip) | Average survival time (HSV-1; 9 × 3 μmol/kg po) | Surviving/group size (HSV-1; 9 × 3 μmol/kg po) | Surviving/group size (HSV-1; 9 × 10 μmol/kg ip) | Average survival time (HSV-1; 9 × 10 μmol/kg po) | Surviving/group size (HSV-1; 9 × 10 μmol/kg po) | Surviving/group size (HSV-1; 9 × 30 μmol/kg ip) | ED50 (HSV-1; ip) | ED50 (HSV-1; po) | also measured
1 | Nc1nc2c(ncn2COCCO)c(=O)[nH]1 [Aciclovir, reference compound] | 0.98 µg/mL (≈ 4.35 µM) | ≥ 400 µg/mL | ≤ 0.4 µg/mL | ≤ 0.98 µg/mL | 0.56 µg/mL (≈ 2.49 µM) | 0.56 µg/mL (≈ 2.49 µM) | 1.16 µg/mL (≈ 5.15 µM) |  |  |  |  |  |  |  |  |  |  |  |  |  | MNTC at 24 h ([2]; vero cells): ≥ 400 µg/mL
2 | CC(C)OCC(COC(C)C)OCn1nnc2nc(N)ncc21 [Example 7, 5-amino-1H-1-[(1,3-bis-isopropoxy-2-propoxy)methyl]-1,2,3-triazolo[4,5-d]pyrimidine] |  |  |  |  |  |  |  | particularly high activity against herpesviruses |  |  |  |  |  |  |  |  |  |  |  |  | 
3 | CC(=O)Nc1ncc2c(nnn2COC(CO)CO)n1 [Example 8, 5-acetamido-1H-1-[(1,3-dihydroxy-2-propoxy)methyl]-1,2,3-triazolo[4,5-d]pyrimidine] | 24.7 µg/mL (≈ 87.5 µM) | ≥ 311 µg/mL | 37 µg/mL (≈ 131 µM) | 11.5 µg/mL (≈ 40.8 µM) | 6.58 µg/mL (≈ 23.3 µM) | 7.68 µg/mL (≈ 27.2 µM) | 7.13 µg/mL (≈ 25.3 µM) |  | ≥ 333 µg/mL | 0.18 µg/mL (≈ 0.638 µM) |  |  |  |  |  |  |  |  |  |  | 
4 | Nc1ncc2c(nnn2COC(CO)CO)n1 [Example 9, 5-amino-1H-1-[(1,3-dihydroxy-2-propoxy)methyl]-1,2,3-triazolo[4,5-d]pyrimidine] | 4.94 µg/mL (≈ 20.6 µM) | ≥ 356 µg/mL | 2.93 µg/mL (≈ 12.2 µM) | 1.65 µg/mL (≈ 6.87 µM) | 1.28 µg/mL (≈ 5.33 µM) | 1.1 µg/mL (≈ 4.58 µM) | < 0.27 µg/mL | particularly high activity against herpesviruses | ≥ 333 µg/mL | < 0.18 µg/mL | 6.3 ± 0.6 days | 2/5 | 8.8 ± 1.6 days | 0/5 | 5/5 | 6.2 ± 0.5 days | 0/5 | 5/5 | 3.7 µmol/kg | > 30 µmol/kg | Average survival time (HSV-1; 9 × 30 μmol/kg po): 8.0 ± 1.7 days; Surviving/group size (HSV-1; 9 × 30 μmol/kg po): 0/5
5 | CC(=O)OCC(COC(C)=O)OCn1nnc2nc(N)ncc21 [Example 10, 5-amino-1H-1-[(1,3-diacetoxy-2-propoxy)methyl]-1,2,3-triazolo [4,5-d]pyrimidine] | 24.7 µg/mL (≈ 76.1 µM) | ≥ 74.1 µg/mL | 24.7 µg/mL (≈ 76.1 µM) | 14.8 µg/mL (≈ 45.7 µM) | 11.5 µg/mL (≈ 35.5 µM) | 9.88 µg/mL (≈ 30.5 µM) | < 0.3 µg/mL | particularly high activity against herpesviruses | ≥ 311 µg/mL | < 0.18 µg/mL |  |  |  |  |  |  |  |  | < 9 µmol/kg | 19.7 µmol/kg | Average survival time (HSV-1; 9 × 9 μmol/kg ip): 11.0 ± 1.4 days; Surviving/group size (HSV-1; 9 × 9 μmol/kg ip): 3/5; Average survival time (HSV-1; 9 × 9 μmol/kg po): 8.8 ± 1.8 days; Surviving/group size (HSV-1; 9 × 9 μmol/kg po): 0/5; Surviving/group size (HSV-1; 9 × 31 μmol/kg ip): 5/5; Average survival time (HSV-1; 9 × 31 μmol/kg po): 12.0 days; Surviving/group size (HSV-1; 9 × 31 μmol/kg po): 4/5; Surviving/group size (HSV-1; 9 × 93 μmol/kg ip): 5/5; Surviving/group size (HSV-1; 9 × 93 μmol/kg po): 5/5
6 | Nc1nc(O)c2ncn(COC(CO)CO)c2n1 [Ganciclovir, reference compound] | 1.65 µg/mL (≈ 6.46 µM) | ≥ 400 µg/mL | 1.93 µg/mL (≈ 7.56 µM) | 0.85 µg/mL (≈ 3.33 µM) | 0.95 µg/mL (≈ 3.72 µM) | ≤ 0.18 µg/mL | 0.06 µg/mL (≈ 0.235 µM) |  | ≥ 400 µg/mL | 6.13 µg/mL (≈ 24 µM) | 8.0 ± 0 days | 3/5 | 11.3 ± 1.5 days | 1/5 | 5/5 | 9.5 ± 0.7 days | 3/5 | 5/5 | < 3 µmol/kg | 6.8 µmol/kg | Surviving/group size (HSV-1; 9 × 30 μmol/kg po): 5/5
